# Measured values as given in patent publication US8889370B2, “Method of determining inhibitors of coagulation” (Siemens Healthcare Diagnostics Products GmbH, priority 2010, dated 2014).
# Like-named read-outs stand apart in the source and are kept apart here.
# Target: T1, bovine thrombin (Bos taurus, UniProt P00735)
# T1 construct: a lyophilized thrombin reagent consisting of bovine thrombin; purchased Siemens Healthcare Diagnostics (hirudin activity assay, thrombin reagent)
# Assay: Determination of the thrombin binding constant (Ki) of peptide aldehyde ligands, chromogenic assay with hirudin activity assay reagents, Dixon plot
# Format: biochemical
# Procedure: The kinetic data of the peptide aldehyde ligands were determined in chromogenic assay formats by measuring the rate of hydrolysis of chromogenic peptide substrates which compete with the peptide aldehyde ligands for binding to the active site of the particular enzyme, at various substrate concentrations and peptide aldehyde-ligand concentrations. The binding constant (Ki) was determined by a known method (Dixon, M., 1953, Biochem J, 55, 170-171).
# The thrombin binding constant was determined using the reagents of the hirudin activity assay from Siemens Healthcare Diagnostics. The hirudin activity assay comprises a lyophilized thrombin reagent consisting of bovine thrombin, a heparin inhibitor and aprotinin, a lyophilized chromogenic substrate reagent with a concentration of 4 mmol/l tos-Gly-Pro-Arg-ANBA-IPA (tosylglycyl-L-propyl-arginyl-5-amino-2-nitrobenzoyliso-propylamide) after reconstitution. The thrombin reagent was reconstituted in buffer solution (trishydroxymethylamino-methane, NaCl, pH 8.2). Dilutions of the substrate reagent were prepared with deionized water. The peptide aldehyde ligands prepared according to example 1 were dissolved in water and used as sample. The B-r-G-R—H ligand was used in a concentration range from 26.1 to 0.815 μM. The B-f-P—R—H ligand was used in a concentration range from 26.1 to 0 μM. The assays were carried out automatically in a BCS® XP coagulation analyzer (Siemens Healthcare Diagnostics, Marburg, Germany).
# A reaction mix was mixed together as follows:
# 30 μl of sample (peptide aldehyde ligand B-r-G-R—H or B-f-P—R—H),
# 150 μl of thrombin reagent,
# 50 μl of chromogenic substrate reagent (tos-Gly-Pro-Arg-ABNA-IPA).
# The reaction rate in mE/min was determined on the basis of the increase in optical density of the reaction mix at a wavelength of 405 nm. For this, the optical density of the reaction mixes was determined in time intervals of from 15 to 40 seconds for the B-f-P—R—H peptide aldehyde ligand or 5-16 seconds for the B-r-G-R—H peptide aldehyde ligand.
# Reversibly and irreversibly binding ligands can be distinguished by their reaction kinetics. Plotting 1/v, where v is the reaction rate, as a function of the ligand concentration (i) at a constant concentration (S) of a cleavable substrate produces a line. When using two or more different substrate concentrations (S1, S2 . . . SN), said lines intersect at a single point. The x axis value of this point corresponds to −Ki, with Ki corresponding to the binding constant, see, for example, Klebe, G., Wirkstoffdesign, 2nd edition, Spektrum Akademischer Verlag, Heidelberg, Germany, 2009, pages 52-62 and Dixon, M., 1953, Biochem J, 55, 170-171. With an irreversible inhibition, the curves meet at a single point on the x axis, which again corresponds to −Ki.
structure (smiles),measurement,setting,value
"N=C(N)NCCC[C@@H](C=O)NC(=O)CNC(=O)[C@@H](CCCNC(=N)N)NC(=O)CCC(=O)NCCCOCCOCCOCCCNC(=O)CCCC[C@@H]1SC[C@@H]2NC(=O)N[C@@H]21 [B-r-G-R-H, biotinyl-Ttds-D-Arg-Gly-Arg-H]",1/Reaction rate,"CB-r-G-R-H 0.81522 μM, Csubstrate = 0.5 mM",0.516 min/E
same,1/Reaction rate,"CB-r-G-R-H 0.81522 μM, Csubstrate = 2 mM",0.3884 min/E
same,1/Reaction rate,"CB-r-G-R-H 0.81522 μM, Csubstrate = 4 mM",0.3756 min/E
same,1/Reaction rate,"CB-r-G-R-H 1.30435 μM, Csubstrate = 0.5 mM",0.5211 min/E
same,1/Reaction rate,"CB-r-G-R-H 1.30435 μM, Csubstrate = 2 mM",0.3902 min/E
same,1/Reaction rate,"CB-r-G-R-H 1.30435 μM, Csubstrate = 4 mM",0.3758 min/E
same,1/Reaction rate,"CB-r-G-R-H 1.63043 μM, Csubstrate = 0.5 mM",0.5224 min/E
same,1/Reaction rate,"CB-r-G-R-H 1.63043 μM, Csubstrate = 2 mM",0.3894 min/E
same,1/Reaction rate,"CB-r-G-R-H 1.63043 μM, Csubstrate = 4 mM",0.3748 min/E
same,1/Reaction rate,"CB-r-G-R-H 2.60870 μM, Csubstrate = 0.5 mM",0.5283 min/E
same,1/Reaction rate,"CB-r-G-R-H 2.60870 μM, Csubstrate = 2 mM",0.3876 min/E
same,1/Reaction rate,"CB-r-G-R-H 2.60870 μM, Csubstrate = 4 mM",0.373 min/E
same,1/Reaction rate,"CB-r-G-R-H 3.26087 μM, Csubstrate = 0.5 mM",0.5385 min/E
same,1/Reaction rate,"CB-r-G-R-H 3.26087 μM, Csubstrate = 2 mM",0.3968 min/E
same,1/Reaction rate,"CB-r-G-R-H 3.26087 μM, Csubstrate = 4 mM",0.3807 min/E
same,1/Reaction rate,"CB-r-G-R-H 5.21739 μM, Csubstrate = 0.5 mM",0.5408 min/E
same,1/Reaction rate,"CB-r-G-R-H 5.21739 μM, Csubstrate = 2 mM",0.3946 min/E
same,1/Reaction rate,"CB-r-G-R-H 5.21739 μM, Csubstrate = 4 mM",0.3761 min/E
same,1/Reaction rate,"CB-r-G-R-H 6.52174 μM, Csubstrate = 0.5 mM",0.5637 min/E
same,1/Reaction rate,"CB-r-G-R-H 6.52174 μM, Csubstrate = 2 mM",0.4008 min/E
same,1/Reaction rate,"CB-r-G-R-H 6.52174 μM, Csubstrate = 4 mM",0.3841 min/E
same,1/Reaction rate,"CB-r-G-R-H 9.78261 μM, Csubstrate = 0.5 mM",0.5802 min/E
same,1/Reaction rate,"CB-r-G-R-H 9.78261 μM, Csubstrate = 2 mM",0.4106 min/E
same,1/Reaction rate,"CB-r-G-R-H 9.78261 μM, Csubstrate = 4 mM",0.3805 min/E
same,1/Reaction rate,"CB-r-G-R-H 13.04348 μM, Csubstrate = 0.5 mM",0.609 min/E
same,1/Reaction rate,"CB-r-G-R-H 13.04348 μM, Csubstrate = 2 mM",0.4032 min/E
same,1/Reaction rate,"CB-r-G-R-H 13.04348 μM, Csubstrate = 4 mM",0.3885 min/E
same,1/Reaction rate,"CB-r-G-R-H 16.30435 μM, Csubstrate = 0.5 mM",0.6264 min/E
same,1/Reaction rate,"CB-r-G-R-H 16.30435 μM, Csubstrate = 2 mM",0.414 min/E
same,1/Reaction rate,"CB-r-G-R-H 16.30435 μM, Csubstrate = 4 mM",0.3865 min/E
same,1/Reaction rate,"CB-r-G-R-H 26.08696 μM, Csubstrate = 0.5 mM",0.6903 min/E
same,1/Reaction rate,"CB-r-G-R-H 26.08696 μM, Csubstrate = 2 mM",0.4285 min/E
same,1/Reaction rate,"CB-r-G-R-H 26.08696 μM, Csubstrate = 4 mM",0.395 min/E
same,Intersect of regression curve 1/reaction rate vs ligand concentration,Csubstrate 0.5 mM,0.5122 min/E
same,Slope of regression curve 1/reaction rate vs ligand concentration,Csubstrate 0.5 mM,0.006964 min/E μM
same,Intersect of regression curve 1/reaction rate vs ligand concentration,Csubstrate 2 mM,0.3880 min/E
same,Slope of regression curve 1/reaction rate vs ligand concentration,Csubstrate 2 mM,0.001572 min/E μM
same,Intersect of regression curve 1/reaction rate vs ligand concentration,Csubstrate 4 mM,0.3746 min/E
same,Slope of regression curve 1/reaction rate vs ligand concentration,Csubstrate 4 mM,0.000805 min/E μM
same,Ki,"average of three Ki values, read-out: KiM average thrombin binding constant",20.9 µM
same,Ki,"intersection of regression curves Csubstrate 2 and 0.5 mM, read-out: Ki2&3 thrombin binding constant",23 µM
same,Ki,"intersection of regression curves Csubstrate 4 and 0.5 mM, read-out: Ki1&3 thrombin binding constant",22.3 µM
same,Ki,"intersection of regression curves Csubstrate 4 and 2 mM, read-out: Ki1&2 thrombin binding constant",17.4 µM
same,binding of the peptide aldehyde with thrombin (reversible or irreversible),intersections of regression curves not on the x axis,reversible
